Assay results taken from patent publication US10227349B2, “Pyrazolo[1,5-a]pyrimidine compound” (Eisai R&D Management Co., Ltd., priority 2016, dated 2019).

Test system: OXA-induced enteritis in BALB/c male mice
Experiment: Model mouse for enteritis (OXA-induced, bowel length)
Type: in vivo
Conditions: po, 48 h, 0.1 mg/mL solution 10 mL/kg orally twice (1 hour before and day after OXA induction), length of colon and rectum two days after induction, read-out: Inhibitory activity on bowel shortening (%)
Experimental: Generally, the bowel length is known to be shorter during enteritis (Maxwell, J. R. et al. Curr. Protoc. Pharmacol. Chapter 5: Unit 5.58, 2009). The bowel length in an enteritis model was measured to evaluate the effect of the test compound.
The test compound was added to a 0.5% carboxymethyl cellulose solution so as to have a final concentration of 0.1 mg/mL, thereby preparing an administration solution containing the test compound. Hapten used was 4-ethoxymethylene-2-phenyloxazol-5-one (OXA, SIGMA-ALDRICH).
One hundred (100) μL of a solution of OXA diluted to 0.3% with ethanol was applied to the shaved abdominal region of BALB/c male mice (Charles River), 6-10 weeks of age, to create the sensitization. Five days after the sensitization, OXA was intrarectally administered to induce an enteritis reaction. More specifically, a syringe equipped with a sonde for oral administration was inserted into the anus of the mouse anesthetized by the inhalation of isoflurane at a concentration of 4-5% and 50 μL of the OXA solution adjusted to 1% with a solvent of 50% ethanol/50% distilled water was administered into the rectum.
One hour before and on the day following the induction of enteritis, the administration solution containing the test compound (10 mL/kg) was orally administered twice in total to the mice. Two days after the induction of enteritis, the mice were euthanized by cervical dislocation and subsequently the cecum to the anus was collected to measure the combined length of the colon and the rectum using a ruler, thereby evaluating the action of the test compound.
Note that Reference Example 1 in Table 6 is Compound (XIX).

For `C[C@@H](c1ccccc1)N(C)c1cc(-c2cc(F)c(F)c(F)c2)nc2cc(C(=O)N3CCC(CC(=O)O)CC3)nn12` [Reference Example 1, (S)-2-(1-(7-(methyl(1-phenylethyl)amino)-5-(3,4,5-trifluorophenyl)pyrazolo[1,5-a]pyrimidine-2-carbonyl)piperidin-4-yl)acetic acid, reference compound], which inhibition in vivo at 100 µg/mL, 1 mg/kg is on record?
The inhibition in vivo at 100 µg/mL, 1 mg/kg was 37.3%.
